According to ChEMBL document CHEMBL1201862, “PubChem BioAssay data set” (2004):
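Briefly, cells in 96-well plates were exposed to five compound concentrations for 48 h, and endpoints were estimated by linear interpolation. Here, GI50 denotes the concentration required for 50% inhibition of growth.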 Active and inactive are the calls of the source. Rule as the data show it: active = GI50 up to about 1.1 µM and inactive = higher.

Assays:
Experiment in all cases: NCI anticancer screen, dose series, 48 h
CCRF-CEM = system: CCRF-CEM
HL-60 = system: HL-60
HOP-62 = system: HOP-62
HT-29 = system: HT-29
KM12 = system: KM12
M14 = system: M14
MCF7 = system: MCF7
NCI-H23 = system: NCI-H23
NCI-H522 = system: NCI-H522
OVCAR-8 = system: OVCAR-8
RPMI-8226 = system: RPMI-8226
SNB-19 = system: SNB-19
SW-620 = system: SW-620
TK-10 = system: TK-10
UACC-62 = system: UACC-62
A498 = system: A498
CAKI-1 = system: CAKI-1
COLO 205 = system: COLO 205
LOX IMVI = system: LOX IMVI
SK-MEL-5 = system: SK-MEL-5

| Structure (SMILES) | GI50 (CCRF-CEM) | GI50 (HL-60) | GI50 (HOP-62) | GI50 (HT-29) | GI50 (KM12) | GI50 (M14) | GI50 (MCF7) | GI50 (NCI-H23) | GI50 (NCI-H522) | GI50 (OVCAR-8) | GI50 (RPMI-8226) | GI50 (SNB-19) | GI50 (SW-620) | GI50 (TK-10) | GI50 (UACC-62) | GI50 (A498) | GI50 (CAKI-1) | GI50 (COLO 205) | GI50 (LOX IMVI) | GI50 (SK-MEL-5) |
| --- | --- | --- | --- | --- | --- | --- | --- | --- | --- | --- | --- | --- | --- | --- | --- | --- | --- | --- | --- | --- |
| N#C/N=[N+](\[O-])c1ccc(C(=O)O)cc1 | 32.7 µM (inactive) | < 0.01 µM (active) | 16.6 µM (inactive) | 20.3 µM (inactive) | > 100 µM (inactive) | 18.2 µM (inactive) | 19.2 µM (inactive) | 17.7 µM (inactive) | 19.5 µM (inactive) | 17.6 µM (inactive) | 14.5 µM (inactive) | 16.3 µM (inactive) | 19.9 µM (inactive) | 17.5 µM (inactive) | 17.4 µM (inactive) | – | – | – | – | – |
| S=C(Cc1ccc2c(c1)Sc1ccccc1O2)N1CCOCC1 | – | 16 µM (inactive) | > 100 µM (inactive) | 24.6 µM (inactive) | 29 µM (inactive) | 40.6 µM (inactive) | 36.7 µM (inactive) | 46.2 µM (inactive) | – | 30.5 µM (inactive) | 34.8 µM (inactive) | > 100 µM (inactive) | 43 µM (inactive) | > 100 µM (inactive) | 28.6 µM (inactive) | 50.6 µM (inactive) | 38.9 µM (inactive) | 36.6 µM (inactive) | 45.4 µM (inactive) | – |
| C=C1Oc2nc3ccccc3c(=O)n2C1(C)C | > 100 µM (inactive) | > 100 µM (inactive) | > 100 µM (inactive) | > 100 µM (inactive) | > 10 µM (inactive) | > 100 µM (inactive) | – | > 100 µM (inactive) | > 100 µM (inactive) | > 100 µM (inactive) | > 100 µM (inactive) | > 100 µM (inactive) | > 100 µM (inactive) | > 100 µM (inactive) | > 100 µM (inactive) | > 100 µM (inactive) | > 100 µM (inactive) | > 100 µM (inactive) | > 100 µM (inactive) | > 100 µM (inactive) |
| COP(C)(=O)/C(Cc1ccccc1)=N\O (centres undefined) | > 100 µM (inactive) | > 100 µM (inactive) | > 100 µM (inactive) | > 100 µM (inactive) | – | > 100 µM (inactive) | > 100 µM (inactive) | > 100 µM (inactive) | – | > 100 µM (inactive) | > 100 µM (inactive) | > 100 µM (inactive) | > 100 µM (inactive) | > 100 µM (inactive) | – | – | > 100 µM (inactive) | > 100 µM (inactive) | > 100 µM (inactive) | > 100 µM (inactive) |
| COc1ccc(C(C2C(=O)N(C)C(=O)N(C)C2=O)C(F)(F)C(=O)N(C)C)cc1 (centres undefined) | > 100 µM (inactive) | – | > 100 µM (inactive) | – | > 100 µM (inactive) | > 100 µM (inactive) | > 100 µM (inactive) | > 100 µM (inactive) | – | > 100 µM (inactive) | > 100 µM (inactive) | > 100 µM (inactive) | > 100 µM (inactive) | > 100 µM (inactive) | > 100 µM (inactive) | > 100 µM (inactive) | > 100 µM (inactive) | > 100 µM (inactive) | > 100 µM (inactive) | > 100 µM (inactive) |
| COc1ccc(/C=N/n2c(C)n[nH]c2=O)c(OC)c1 | > 100 µM (inactive) | – | > 100 µM (inactive) | > 100 µM (inactive) | > 100 µM (inactive) | > 100 µM (inactive) | > 100 µM (inactive) | > 100 µM (inactive) | – | > 100 µM (inactive) | > 100 µM (inactive) | > 100 µM (inactive) | > 100 µM (inactive) | – | 35.2 µM (inactive) | 57.9 µM (inactive) | > 100 µM (inactive) | > 100 µM (inactive) | – | – |
| COc1ccc(OC)c(/C=C/NC=O)c1 | > 100 µM (inactive) | > 100 µM (inactive) | > 100 µM (inactive) | > 100 µM (inactive) | > 100 µM (inactive) | > 100 µM (inactive) | – | > 100 µM (inactive) | > 100 µM (inactive) | > 100 µM (inactive) | > 100 µM (inactive) | > 100 µM (inactive) | > 54.5 µM (inactive) | > 100 µM (inactive) | > 100 µM (inactive) | > 100 µM (inactive) | > 100 µM (inactive) | > 71.3 µM (inactive) | > 100 µM (inactive) | > 100 µM (inactive) |
| O=CNCNCCO | > 100 µM (inactive) | 20.7 µM (inactive) | > 100 µM (inactive) | 55.1 µM (inactive) | – | > 100 µM (inactive) | > 100 µM (inactive) | > 100 µM (inactive) | – | > 100 µM (inactive) | 31.7 µM (inactive) | > 100 µM (inactive) | 46 µM (inactive) | > 100 µM (inactive) | 46.9 µM (inactive) | > 100 µM (inactive) | > 100 µM (inactive) | – | – | > 100 µM (inactive) |
